Values quoted from earlier work, collected in patent publication US7288142B2, “Black dyes composition for ink-jet inks” (Everlight USA, Inc., priority 2005, dated 2007).

What was measured:
[1] = as ink-jet black dye, prior art
[2] = as ink-jet black dye, prior art; remark: listed apart in the source

Row | Compound | light-fastness [1] | solubility [2]
1 | Nc1cc2c(O)c(N=Nc3ccc(N=Nc4ccc(S(=O)(=O)[O-])cc4)c4ccc(S(=O)(=O)[O-])cc34)c(S(=O)(=O)[O-])cc2cc1S(=O)(=O)[O-].[Na+].[Na+].[Na+].[Na+] [C.I. Food Black 2] | poor | 
2 | C.I. Direct Black 168 | good | low
